Literature values as cited in EP2932963A1, “Stable pharmaceutical dosage forms comprising Levothyroxine sodium” (Uni-Pharma Kleon Tsetis Pharmaceutical Laboratories S.A., priority 2014, dated 2015).
Where two headings read alike, the source gives them in different places.

Tests used:
[1] = dependence on pH

- pKa (amino group): 9.96
- pKa (carboxyl group): 2.4
- pKa (phenolic group): 6.87
Structure (SMILES): N[C@@H](Cc1cc(I)c(Oc2cc(I)c(O)c(I)c2)c(I)c1)C(=O)O [Levothyroxine]
- aqueous solubility [1]: reduces from pH 1 to 3 and increases above pH 7
